This note sets out measurements from patent US20180064679A1, “METHOD FOR TREATING CANCER BASED ON LEVEL OF GLUCOCORTICOID RECEPTOR” (Abraxis BioScience, LLC, priority 2015, published 2018).

Structures are written as SMILES.

One assay has as its system H1755 cells. The experiment in a line: caspase-3/7 activation (apoptosis) assay in H1755 cells. Type of assay: cell-based, human. As to the method: H1755 cells were cultured using EMEM with 10% FBS. FBS was charcoal-filtered to remove endogenous steroids. Cells were plated at 5000 cell per well and treated 24 hours after plating. H1755 cell samples treated with DEX received DEX 30 minutes prior to administration of PTX or a vehicle control. Vehicle controls are the same as those discussed in Example 1. Additionally, during PTX and/or DEX drug dosing, a caspase-3/7 activation reagent was added to the cell samples, for example, Caspase-3/7 reagent (Essen BioScience, Ann Arbor, Mich; Catalog No. 4440). Specifically, the CELLPLAYER™ Kinetic Caspase-3/7 activation assay reagents (Essen BioScience, Ann Arbor, Mich.) were used to detect caspase-3/7 activation.
At time points following PTX administration the activation of the caspase-3/7 reagent was measured with, for example, an INCUCYTE™ FLR (Essen BioScience, Ann Arbor, Mich.). […] Apoptotic or apoptosing H1755 cells (caspase-3/7 positive cells) are indicated in white, as measured by caspase-3/7 activation (FIGS. 3A-3D).
To determine the EC50 of DEX in H1755 cells, a series of PTX concentrations were evaluated for caspase-3/7 activation across a series of DEX concentrations. […]
H1755 cell samples were treated with 0, 0.43, 1.3, 4.12, 12.3, 37, 111, 333, 1000, or 3000 nM PTX. […] At time points following drug administration, caspase-3/7 activation was measured as discussed in Example 1.

For a further assay, the system named is H522 cell line. Description: caspase-3/7 activation assay in H522 cell line. In kind it is cell-based. Particulars: 100 nM DEX, 100 nM PTX, H522 (minimal level of GR).
The test system of a further assay is H23 cells. The experiment in a line: caspase-3/7 activation assay in H23 cells. Conditions: H23 cells (low level of GR expression), data not shown. Type of assay: cell-based.
For a further assay, the system named is MKP-1. Description: qRT-PCR of MKP-1 mRNA in H1755 cells. Particulars: 100 nM DEX, H1755 cells, 1, 4 or 24 hours. Type of assay: cell-based, human. As to the method:
(§1) H1755 and H522 cells were cultured using RPMI media that was charcoal-filtered media to remove steroids. Cell samples received one of the following treatments: vehicle control (0.1% EtOH for DEX vehicle control or 0.1% DMSO for PTX vehicle control), 100 nM DEX, 100 nM PTX, or 100 nM DEX and 100 nM PTX. At 1 hour, 4 hours, or 24 hours after drug administration, cell samples were harvested and mRNA levels of MKP-1 and SGK1 were measured via quantitative real-time polymerase chain reaction (qRT-PGR). Western blot analysis of GR, phosphorylated JNK1 (P-JNK1; phosphorylation at Thr 183 and Tyr 185), JNK1, phosphorylated c-Jun (P c-Jun; phosphorylation at Ser 73 or Ser 63), c-Jun, phosphorylated MKP1 (pMKP1; phosphorylated at Ser 359), SG1, phosphorylated MCL-1 (pMCL-1; phosphorylated at Ser 64), MCL-1, phosphorylated BCL2 (pBC1,2; phosphorylated at Ser 70), BCL2, BCLXL, cleaved caspase-3, and GAPDH (for purposes of normalization) was performed following treatment with either a vehicle control (0.1% EtOH for DEX vehicle control or 0.1% DMSO for PTX vehicle control), 100 nM DEX, 100 nM PTX, or 100 nM DEX and 100 nM PTX.

In a further assay the test system is SGK1. The experiment in a line: qRT-PCR of SGK1 mRNA in H1755 cells. Particulars: 100 nM DEX, H1755 cells, 1, 4 or 24 hours. Type of assay: cell-based, human. Here is the method:
as §1

The test system of the next assay is MAP TAU. The experiment in a line: Western blot of MAP TAU in H1755 cells. Type of assay: cell-based, human. Here is the method:
H1755 and H522 cells were analyzed by Western blot at 4 and 24 hours following administration of a vehicle control (0.1% EtOH for DEX vehicle control or 0.1% DMSO for PTX vehicle control), 100 nM DEX, 100 nM PTX, or 100 nM DEX and 100 nM PTX.

A further assay deals with MDA-MB-231 cells. The experiment in a line: caspase-3/7 activation (apoptosis) assay in MDA-MB-231 cells. In kind it is cell-based. Particulars: PTX 0-3000 nM alone, roughly 34.5 hours. Here is the method: MDA-MB-231 cells were cultured using Eagle's minimum essential medium (EMEM) with 10% fetal bovine serum (FBS). FBS was charcoal-filtered to remove endogenous steroids. Cells were plated at 5000 cell per well and treated 24 hours after plating. PTX doses of 3000, 1000, 333.3, 111.1, 37.0, 12.3, 4.1, 1.4, 0.5, and 0 nM were evaluated. MDA-MB-231 cell samples treated with DEX received 100 nM DEX 30 minutes prior to administration of PTX or a vehicle control. The vehicle control for DEX was 0.1% ethanol, final concentration after addition. The vehicle control for PTX was 0.1% DMSO, final concentration after addition. Additionally, during PTX and/or DEX drug dosing, a caspase-3/7 activation reagent was added to the cell samples, for example, Caspase-3/7 reagent (Essen BioScience, Ann Arbor, Mich.; Catalog No. 4440). Specifically, the CELLPLAYER™ Kinetic Caspase-3/7 activation assay reagents (Essen BioScience, Ann Arbor, Mich.) were used to detect caspase-3/7 activation.
At time points following PTX administration (e.g., roughly every 3 hours) the activation of the caspase-3/7 reagent was measured with, for example, an INCUCYTE™ FLR (Essen BioScience, Ann Arbor, Mich.). Activation of caspase-3/7 is indicative of an apoptotic and/or an apoptosing cell. All concentrations of PTX, both with and without DEX, were evaluated in triplicate.

For assay [1], the system named is phosphorylated c-Jun (Ser 73). The experiment in a line: Western blot of phosphorylated c-Jun (Ser 73) in H1755 cells. Type of assay: cell-based, human. Conditions: 100 nM PTX, 4 hours. Here is the method:
(§2) H1755 and H522 cells were cultured using RPMI media that was charcoal-filtered media to remove steroids. Cell samples received one of the following treatments: vehicle control (0.1% EtOH for DEX vehicle control or 0.1% DMSO for PTX vehicle control), 100 nM DEX, 100 nM PTX, or 100 nM DEX and 100 nM PTX. At 1 hour, 4 hours, or 24 hours after drug administration, cell samples were harvested and mRNA levels of MKP-1 and SGK1 were measured via quantitative real-time polymerase chain reaction (qRT-PGR). […]
(§3) In addition to measuring MKP-1 and SGK1 mRNA expression, a series of proteins (and their phosphorylation status) involved in stress pathway signaling were evaluated via Western blot to measure changes following treatment with DEX, PTX, or DEX and PTX. JNK1 was measured after 2 hours of treatment, P c-Jun, c-Jun, pMPK1, and SGK1 were measured after 4 hours of treatment, and other measurements were after 24 hours of treatment. […]

Assay [2] relates to phosphorylated c-Jun (Ser 73). The experiment in a line: Western blot of phosphorylated c-Jun (Ser 73) in H522 cells. Type of assay: cell-based. Particulars: 100 nM PTX, 4 hours. Here is the method: as §2, §3
Another assay deals with MCL1. The experiment in a line: Western blot of MCL1 and phosphorylated MCL1. In kind it is cell-based. Particulars: 100 nM PTX, 24 hours, H1755 and H522 cells. As to the method: as §1
(§4) Furthermore, pro-survival markers, MCL1, BCL2, and BCLXL, were measured by Western blot to evaluate changes following treatment with DEX, PTX, or DEX and PTX. MCL1, BCL2, and BCLXL inhibit apoptosis by blocking activation of caspases, such as, caspase-3. […]

In a further assay the test system is phosphorylated BCL2. Description: Western blot of phosphorylated BCL2 in H1755 cells. Conditions: 100 nM PTX, 24 hours. In kind it is cell-based, human. Here is the method: as §1, §4
Assay [3] deals with BCLXL. Description: Western blot of BCLXL in H1755 cells. Type of assay: cell-based, human. Conditions: 100 nM PTX, 24 hours. Here is the method: as §1, §4
Assay [4] deals with BCLXL. Description: Western blot of BCLXL in H522 cells. In kind it is cell-based. Particulars: 100 nM PTX, 24 hours. Here is the method:
as §1, §4

For assay [5], the system named is cleaved caspase-3. Description: Western blot of cleaved caspase-3 in H1755 cells. In kind it is cell-based, human. Particulars: 100 nM PTX, 24 hours. As to the method: as §1, §4
Assay [6] relates to cleaved caspase-3. The experiment in a line: Western blot of cleaved caspase-3 in H522 cells. Particulars: 100 nM PTX, 24 hours. In kind it is cell-based. Here is the method: as §1, §4
Assay [7] concerns ERK, phosphorylated ERK, p38, and phosphorylated p38. The experiment in a line: Western blot of MAPK pathway proteins in H1755 and H522 cells. Particulars: 100 nM DEX and/or 100 nM PTX, 4 hours. Type of assay: cell-based. As to the method: H1755 and H522 cells were analyzed by Western blot at 4 hours following administration of a vehicle control (0.1% EtOH for DEX vehicle control or 0.1% DMSO for PTX vehicle control), 100 nM DEX, 100 nM PTX, or 100 nM DEX and 100 nM PTX.

`C[C@@H]1C[C@H]2[C@@H]3CCC4=CC(=O)C=C[C@]4(C)[C@@]3(F)[C@@H](O)C[C@]2(C)[C@@]1(O)C(=O)CO` [DEX, dexamethasone] had an EC50 with H1755 cells (Homo sapiens, NCI-H1755, caspase-3/7 activation, series of PTX and DEX concentrations) of 4 nM. Further, in the assay with H522 cell line, the “DEX antagonism of PTX-induced apoptosis” value is given as “no effect”. For the same compound, in the assay on H23 cells, the “DEX effect on PTX-induced apoptosis” value is “no effect”. Further, the “up-regulation of MKP-1 mRNA by DEX, maximum” value in the assay on MKP-1 is recorded as 8 fold. For the same compound, the “up-regulation of SGK1 mRNA by DEX, maximum” value in the assay with SGK1 is listed as 2.5 fold. Moreover, the “increase of MAP TAU in cells treated with DEX and PTX” value with MAP TAU (100 nM DEX and 100 nM PTX, 24 hours) was found to be 2 fold. The “DEX-induced upregulation of MAP TAU” value in the assay with MAP TAU (100 nM DEX, 24 hours after drug administration) was found to be 5 fold.

On to `CC(=O)O[C@H]1C(=O)[C@@]2(C)[C@H]([C@H](OC(=O)c3ccccc3)[C@]3(O)C[C@H](OC(=O)[C@H](O)[C@@H](NC(=O)c4ccccc4)c4ccccc4)C(C)=C1C3(C)C)[C@]1(OC(C)=O)CO[C@@H]1C[C@@H]2O` [PTX, paclitaxel], for which the “level of apoptosis (as measured by level of caspase-3/7 activation)” value in the assay on MDA-MB-231 cells is reported as “higher concentrations of PTX induced increased levels of apoptosis”. Further, the “level of apoptosis (caspase-3/7 activation), PTX alone” value in the assay on H1755 cells (111 nM PTX) was “marked increase in apoptosis”. For the same compound, the “phosphorylation of c-Jun on Ser 73 following PTX treatment” value in assay [1] and in assay [2] was “increased” in each case. The “phosphorylation of MCL1” value with MCL1 is recorded as “up-regulated”. For the same compound, the “total expression of MCL1” value in the assay with MCL1 is “decreasing”. In addition, the “phosphorylation of BCL2” value with phosphorylated BCL2 is “up-regulated”. Also, the figures for the BCLXL expression result in the assay with BCLXL [3] and in the assay with BCLXL [4] were “down-regulated” and “not H522 cells”, respectively. Further, the “expression of cleaved caspase-3” value with cleaved caspase-3 [5] and in the assay on cleaved caspase-3 [6] was “increases” in each case. Besides, in [7], the “change of MAPK pathway proteins and MAPK signaling mechanisms” value is “minimally changed”.
